Experimental findings from PubChem BioAssay (NCI) are described below.

Test systems include A549 NSCLC; DU-145 prostate; EKVX NSCLC; HL-60(TB) leukemia; HT29 colon; IGROV1 ovarian; NCI-H23 lung; OVCAR-5 ovarian; UACC-257 melanoma; NCI-H522 lung.
What all share (assay): DTP human tumour cell line panel, 48 h

The structures appear in SMILES notation.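 Tested at 5 concentrations; 48 h exposure; 96-well plates; endpoints linearly interpolated, else capped at highest concentration. GI50: concentration for 50% inhibition of growth. TGI: total growth inhibition.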

As a reminder, the TGI is the concentration at which net growth stops. With `C=C1CCCCCCCCCCC1S(=O)c1ccccc1` (stereo unspecified), the concentration for total growth inhibition (TGI) in the test on A549 NSCLC was more than 100 µM; with DU-145 prostate, more than 100 µM; in the test with EKVX NSCLC it was more than 100 µM; in the test with HL-60(TB) leukemia, 39.2 µM; in the test with HT29 colon, more than 100 µM; in the test on IGROV1 ovarian, 33.4 µM. For the same compound, the TGI in the test on NCI-H23 lung, in the test on OVCAR-5 ovarian and in the test on UACC-257 melanoma was more than 100 µM each time.
For `O=C1CSC2(CCN(CCCN3c4ccccc4Sc4ccc(Cl)cc43)CC2)N1`, the total growth inhibition concentration (TGI) in the test on A549 NSCLC is 23.4 µM; in the test on DU-145 prostate, 24.2 µM; in the test with EKVX NSCLC, 22.7 µM; in the test with HT29 colon, 11.9 µM; in the test on IGROV1 ovarian, 20.8 µM; in the test with NCI-H23 lung, 24.1 µM. The TGI in the test on NCI-H522 lung stood at 23.6 µM; with OVCAR-5 ovarian, 24.3 µM; with UACC-257 melanoma it was 22 µM.
As usually defined, the GI50 is the concentration at which growth is held to half of that of the control. Turning to `COc1ccc(-c2cn3ccnc3c(-c3ccc4ncn(C5CCCCC5)c4c3)n2)cc1`, the GI50 is 1.83 µM in the test with A549 NSCLC; 1.07 µM in the test with DU-145 prostate; 3.04 µM with EKVX NSCLC; 1.06 µM with HL-60(TB) leukemia; 0.921 µM with IGROV1 ovarian; 2.11 µM with NCI-H23 lung. For the same compound, the figures for the GI50 in the test on NCI-H522 lung and in the test on UACC-257 melanoma were 0.424 µM and more than 100 µM, respectively. Moreover, the total growth inhibition concentration (TGI) is more than 100 µM with A549 NSCLC; more than 100 µM in the test with DU-145 prostate; more than 100 µM in the test on EKVX NSCLC; 5.05 µM in the test with HL-60(TB) leukemia; more than 100 µM in the test with IGROV1 ovarian; more than 100 µM in the test with NCI-H23 lung. In addition, the figures for the TGI in the test on NCI-H522 lung and with UACC-257 melanoma were 6.15 µM and more than 100 µM, respectively.
For the compound `O=C(CSC1=NCCN1)c1ccccc1`, the total growth inhibition concentration (TGI) with A549 NSCLC, in the test with DU-145 prostate, in the test with EKVX NSCLC, in the test with HT29 colon, in the test on IGROV1 ovarian and in the test with NCI-H23 lung was more than 100 µM in each case. For the same compound, the total growth inhibition concentration (TGI) with NCI-H522 lung, in the test with OVCAR-5 ovarian and in the test on UACC-257 melanoma was more than 100 µM throughout.
With `O=C1CC(c2cccc(Cl)c2)n2cccc21` (stereo unspecified), the TGI with A549 NSCLC is more than 100 µM; in the test with DU-145 prostate it was more than 100 µM; in the test with HL-60(TB) leukemia, 92.7 µM; with HT29 colon, more than 100 µM; in the test on NCI-H23 lung, more than 100 µM; in the test with OVCAR-5 ovarian it was more than 100 µM. The compound further showed a TGI in the test on UACC-257 melanoma of more than 100 µM.
As for `Cc1nc2c(Br)cc(Br)cc2c(=O)n1-c1ccccc1N`, the TGI in the test on A549 NSCLC was more than 100 µM; in the test on DU-145 prostate, more than 100 µM; in the test with EKVX NSCLC, more than 100 µM; in the test on HL-60(TB) leukemia, 66.5 µM; in the test with HT29 colon, 65.4 µM; with IGROV1 ovarian, more than 100 µM. In addition, the total growth inhibition concentration (TGI) was more than 100 µM with OVCAR-5 ovarian and 86.5 µM in the test on UACC-257 melanoma.
Consider `COc1cccc(-c2cc(=O)c3cc(C)cnc3[nH]2)c1`, for which the TGI is more than 100 µM in the test with DU-145 prostate; more than 100 µM with EKVX NSCLC; 0.617 µM in the test with HL-60(TB) leukemia; 0.191 µM in the test with HT29 colon; more than 100 µM in the test with IGROV1 ovarian; more than 100 µM in the test with NCI-H23 lung. In addition, the total growth inhibition concentration (TGI) in the test on OVCAR-5 ovarian and in the test with UACC-257 melanoma was more than 100 µM each time.
With `CC1(C)CCOC(=O)C(Cl)CC1Cl` (stereo unspecified), the TGI with A549 NSCLC, with DU-145 prostate, in the test on EKVX NSCLC, in the test with HT29 colon, with IGROV1 ovarian and in the test with NCI-H23 lung was more than 100 µM each time. Moreover, the TGI in the test with NCI-H522 lung, in the test on OVCAR-5 ovarian and in the test on UACC-257 melanoma was more than 100 µM throughout.
In the case of `O=S1(=O)c2ccccc2N2CCCc3cc(Cl)cc1c32`, the total growth inhibition concentration (TGI) in the test with A549 NSCLC, with DU-145 prostate, with EKVX NSCLC, with HL-60(TB) leukemia, in the test on HT29 colon and with IGROV1 ovarian was more than 100 µM each time. Further, the total growth inhibition concentration (TGI) in the test with OVCAR-5 ovarian and in the test on UACC-257 melanoma was more than 100 µM each time.
Regarding `CC(NC(=O)c1ccc(OP(=O)(OCC2=CC(=O)c3ccccc3C2=O)N(C)CCCCCl)cc1)c1ccc(OCC2CCCCC2)c(C(N)=O)c1` (stereo unspecified), the concentration for total growth inhibition (TGI) in the test on A549 NSCLC is 5.6 µM; in the test with DU-145 prostate, 16.7 µM; in the test with HL-60(TB) leukemia it was 41.1 µM; in the test with HT29 colon it was 31.2 µM; in the test on IGROV1 ovarian it was 21.6 µM; in the test with NCI-H23 lung, 10.2 µM. Besides, the total growth inhibition concentration (TGI) in the test on NCI-H522 lung was 29 µM; in the test with OVCAR-5 ovarian it was 70.6 µM; with UACC-257 melanoma, 18.6 µM.
Regarding `CC1=C(C#N)S(=O)(=O)c2c(oc(C)c2C)N1`, the total growth inhibition concentration (TGI) in the test with A549 NSCLC, in the test on DU-145 prostate, in the test on EKVX NSCLC, with HT29 colon, in the test on NCI-H23 lung and in the test on NCI-H522 lung was more than 100 µM throughout. Further, the concentration for total growth inhibition (TGI) with OVCAR-5 ovarian and in the test with UACC-257 melanoma was more than 100 µM each time.
Turning to `Clc1ccc(-c2nc(-c3ccc(Cl)cc3)[s+]s2)cc1`, the total growth inhibition concentration (TGI) in the test with A549 NSCLC, in the test with DU-145 prostate, in the test with EKVX NSCLC, with HT29 colon, with IGROV1 ovarian and with NCI-H23 lung was more than 100 µM each time. The TGI with NCI-H522 lung, with OVCAR-5 ovarian and in the test on UACC-257 melanoma was more than 100 µM each time.
Consider `CCOC(=O)/C=C(/C(=O)OCC)n1cc(C)c(=O)n(Cc2cnnn2CCCCOC(C)=O)c1=O`, for which the TGI in the test on A549 NSCLC is more than 100 µM; with DU-145 prostate, more than 100 µM; in the test on EKVX NSCLC, 49.3 µM; in the test on HT29 colon, 34.3 µM; with IGROV1 ovarian, 38.3 µM; with NCI-H23 lung, 90.8 µM. The figures for the TGI in the test on NCI-H522 lung, with OVCAR-5 ovarian and in the test on UACC-257 melanoma were 14.2 µM, 39.8 µM and more than 100 µM, respectively.
In the case of `CN(C)c1ccc(/C=C2\N=C(c3ccccc3)N(c3nc4c(Cl)cc(Cl)cc4s3)C2=O)cc1`, the TGI in the test on A549 NSCLC, in the test on DU-145 prostate, with EKVX NSCLC, with HL-60(TB) leukemia, in the test with HT29 colon and with IGROV1 ovarian was more than 100 µM throughout. In addition, the concentration for total growth inhibition (TGI) with OVCAR-5 ovarian and in the test on UACC-257 melanoma was more than 100 µM each time.
